The text below walks through data of patent US12624026B2, “Inhibitors of SARM1” (Disarm Therapeutics, Inc., priority 2018, dated 2026).
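Further: inhibition of SARM1 SAM-TIR NADase activity, i.e. NAD+ cleavage, using lysate of NRK1-HEK293T cells overexpressing the SAM-TIR fragment.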

One assay addresses T1, SARM1 SAM-TIR (Homo sapiens, UniProt Q6SZW1).
T1 construct: a fragment of the SARM1 molecule encompassing the SAM and TIR domains; made in house; host or cells: NRK1-HEK293T cells, transiently transfected; the cleared, unpurified lysate was used as the enzyme
T1 sequence (Q6SZW1 409-724 limits assumed): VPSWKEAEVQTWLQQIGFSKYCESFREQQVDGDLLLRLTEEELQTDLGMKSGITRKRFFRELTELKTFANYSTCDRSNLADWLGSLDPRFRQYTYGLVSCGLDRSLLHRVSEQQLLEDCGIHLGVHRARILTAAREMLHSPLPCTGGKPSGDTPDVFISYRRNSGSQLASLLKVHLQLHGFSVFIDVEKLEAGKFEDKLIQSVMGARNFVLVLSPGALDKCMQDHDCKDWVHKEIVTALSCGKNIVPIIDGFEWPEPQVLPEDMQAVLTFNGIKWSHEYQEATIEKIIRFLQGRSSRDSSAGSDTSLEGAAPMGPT
Briefly: biochemical.
Settings: not given
Usually IC50 stands for the point on the concentration scale where inhibition reaches its midpoint. The compound `O=C(c1c(Nc2ccccc2C(F)(F)F)s[nH]c1=O)N1CCCC1` [Example 110] registered an IC50 of 1 to 5 µM.
Same read-out and setting: the value for `N#Cc1c(Nc2cccc(C3=CCNCC3)c2C(F)(F)F)s[nH]c1=O` [Example 131] was less than 1 µM.

The same assay, now with this note: SAM-TIR lysate 5 μg/mL, 2 h pre-incubation, 5 μM NAD+, RapidFire MS of NAD+ and ADPR; read-out: SARM1 IC50.
As to `COc1cccc(C)c1Nc1s[nH]c(=O)c1C#N` [Example 109], the IC50 was in the range of 1 to 5 µM.
Still for that read-out and setting: the value for `N#Cc1c(Nc2ccccc2C2CC2)s[nH]c1=O` [Example 111] was 1 to 5 µM; that for `CN(C(=O)c1c(Nc2ccccc2C(F)(F)F)s[nH]c1=O)C1CCCCC1` [Example 112] was 1 to 5 µM; that for `COc1cccc(OC)c1Nc1s[nH]c(=O)c1C#N` [Example 113] was 1 to 5 µM.
As to `COCCN(C)C(=O)c1c(Nc2ccccc2C(F)(F)F)sn([C@@H](C)c2ccccc2)c1=O` [Example 114], the IC50 is more than 5 µM.
As for `CN(C)C(=O)c1c(Nc2ccccc2C(F)(F)F)s[nH]c1=O` [Example 115], the IC50 fell in the range of 1 to 5 µM.
On the same count and under the same terms, the same measure for `COCCN(C)C(=O)c1c(Nc2ccccc2C(F)(F)F)s[nH]c1=O` [Example 116]: more than 5 µM.
On the same count and under the same terms, the value for `O=C(c1c(Nc2ccccc2C(F)(F)F)s[nH]c1=O)N1CCCCC1` [Example 117] was 1 to 5 µM; that for `COCCn1sc(Nc2c(Cl)cccc2Cl)c(C(N)=O)c1=O` [Example 118] was more than 5 µM; that for `COCCN(C)C(=O)c1c(Nc2c(Cl)cccc2Cl)s[nH]c1=O` [Example 119] was more than 5 µM.
Still for that read-out and setting: the value for `N#Cc1c(Nc2cccc(C(=O)O)c2C(F)(F)F)s[nH]c1=O` [Example 120] was more than 5 µM; that for `COc1ccc(Cn2sc(N(CCF)c3ccccc3C(F)(F)F)c(C#N)c2=O)cc1` [Example 121] was more than 5 µM; that for `N#Cc1c(Nc2cccc3ncccc23)sn(CCC(N)=O)c1=O` [Example 122] was less than 1 µM.
`COC(=O)c1c(Nc2ccccc2C(F)(F)F)s[nH]c1=O` [Example 123]: the IC50 was more than 5 µM.
Still for that read-out and setting: the same measure for `COCCN(C)C(=N)c1c(Nc2cccc(Cl)c2Cl)sn(CCOC)c1=O` [Example 124]: less than 1 µM; for `CN(C)C(=N)c1c(Nc2ccccc2Cl)sn(C)c1=O` [Example 125]: less than 1 µM; for `Cn1sc(Nc2ccccc2Cl)c(C(=N)N2CCOCC2)c1=O` [Example 126]: less than 1 µM.
Still for that read-out and setting: the value for `COCCn1sc(Nc2cccc(Cl)c2Cl)c(C(=N)N2CCCCC2)c1=O` [Example 127] was less than 1 µM.
The same measure, in the same setting: the same measure for `C[C@@H](c1ccccc1)n1sc(Nc2ccccc2C(F)(F)F)c(C(=N)N(C)C)c1=O` [Example 128]: less than 1 µM; for `COCCn1sc(Nc2cccc(Cl)c2Cl)c(C(=N)N2CCOCC2)c1=O` [Example 130]: less than 1 µM; for `Cn1sc(Nc2c(Cl)cccc2Cl)c(C(=N)N2CCOCC2)c1=O` [Example 132]: less than 1 µM.
In the case of `CN(C)C(=N)c1c(Nc2cccc(Cl)c2Cl)s[nH]c1=O` [Example 133], the IC50 was less than 1 µM.
Same read-out and setting: the value for `C[C@@H](c1ccccc1)n1sc(Nc2c(Cl)cccc2Cl)c(C(=N)N(C)C)c1=O` [Example 134] was 1 to 5 µM; that for `COCCn1sc(Nc2c(OC)cccc2C(F)(F)F)c(C(=N)N(C)C)c1=O` [Example 135] was 1 to 5 µM.
On the same count and under the same terms, the same measure for `N=C(c1c(Nc2cccc(Cl)c2Cl)s[nH]c1=O)N1CCOCC1` [Example 136]: 1 to 5 µM; for `C[C@@H](c1ccccc1)n1sc(Nc2ccccc2C(F)(F)F)c(C(=N)N2CCOCC2)c1=O` [Example 137]: 1 to 5 µM; for `CN(C)C(=N)c1c(Nc2ccccc2C(F)(F)F)s[nH]c1=O` [Example 138]: 1 to 5 µM.
Same read-out and setting: the value for `COCCN(C)C(=N)c1c(Nc2cccc(Cl)c2Cl)s[nH]c1=O` [Example 139] was 1 to 5 µM.
As to `Cn1sc(Nc2c(F)cccc2Cl)c(C(=O)N2CCOCC2)c1=O` [Example 140], the IC50 lay within 1 to 5 µM.
On to `COCCN(C)C(=N)c1c(Nc2ccccc2C(F)(F)F)s[nH]c1=O` [Example 141], for which the IC50 was 1 to 5 µM.
On to `Cn1sc(Nc2c(Cl)cccc2Cl)c(C(=O)N2CCOCC2)c1=O` [Example 143], for which the IC50 fell in the range of 1 to 5 µM.
Still for that read-out and setting: the value for `N#Cc1c(Nc2ccc(N3CC[C@@H](N)C3)nc2)s[nH]c1=O` [Example 144] was 1 to 5 µM; that for `CN(C)C(=N)c1c(Nc2c(Cl)ccc3ncccc23)s[nH]c1=O` [Example 145] was 1 to 5 µM; that for `CN(C)C(=N)c1c(Nc2ccccc2C2CC2)s[nH]c1=O` [Example 146] was 1 to 5 µM.
As to `C[C@@H](c1ccccc1)n1sc(Nc2ccccc2C(F)(F)F)c(C(=O)N2CCOCC2)c1=O` [Example 147], the IC50 was in the range of 1 to 5 µM.
Regarding `O=C(c1c(Nc2ccccc2C(F)(F)F)s[nH]c1=O)N1CCOCC1` [Example 148], the IC50 is 1 to 5 µM.
On the same count and under the same terms, the value for `O=C(c1c(Nc2c(F)cccc2Cl)s[nH]c1=O)N1CCOCC1` [Example 149] was 1 to 5 µM; that for `N#Cc1c(Nc2ccc(N3CC[C@@H](O)C3)nc2)s[nH]c1=O` [Example 150] was 1 to 5 µM; that for `N#Cc1c(Nc2ccc3c(c2)ncn3[C@H]2CCNC2)s[nH]c1=O` [Example 151] was 1 to 5 µM.
The same measure, in the same setting: the same measure for `COCCn1sc(Nc2ccccc2C(F)(F)F)c(-c2ncon2)c1=O` [Example 152]: more than 5 µM.
On the same count and under the same terms, the value for `O=C(c1c(Nc2c(Cl)cccc2Cl)s[nH]c1=O)N1CCOCC1` [Example 153] was 1 to 5 µM; that for `COc1cccc(C#N)c1Nc1sn(CC(C)(C)O)c(=O)c1C(=O)N1CCOCC1` [Example 154] was more than 5 µM.
As to `N#Cc1c(Nc2cccc(C3CCCNC3)c2C(F)(F)F)s[nH]c1=O` (stereo not drawn) [Example 157], the IC50 is more than 5 µM.
Still for that read-out and setting: the same measure for `COc1cccc(C(F)(F)F)c1Nc1sn(C)c(=O)c1C(=O)N1CCOCC1` [Example 158]: more than 5 µM; for `COc1cccc(C(F)(F)F)c1Nc1s[nH]c(=O)c1C(=O)N1CCOCC1` [Example 159]: more than 5 µM; for `COCCn1sc(N(C)c2ccccc2C(F)(F)F)c(-c2ncon2)c1=O` [Example 160]: more than 5 µM.
Consider `N#Cc1c(Nc2cccc(-c3ccc4cc[nH]c4c3)c2C(F)(F)F)s[nH]c1=O` [Example 161], for which the IC50 is more than 5 µM.
As to `N#Cc1c(N2CCc3ccccc32)s[nH]c1=O` [Example 162], the IC50 was more than 5 µM.
The same measure, in the same setting: the same measure for `N#Cc1c(Nc2cccc(C3CCNCC3)c2C(F)(F)F)s[nH]c1=O` [Example 163]: more than 5 µM; for `C[C@@H](c1ccccc1)n1sc(Nc2c(Cl)cccc2Cl)c(C(=N)N2CCOCC2)c1=O` [Example 165]: more than 5 µM; for `O=c1cc(Nc2ccccc2C(F)(F)F)s[nH]1` [Example 166]: 1 to 5 µM.
In the case of `C[C@@H](c1ccccc1)n1sc(Nc2c(Cl)cccc2Cl)c(C(=O)N2CCOCC2)c1=O` [Example 167], the IC50 was in the range of 1 to 5 µM.
Still for that read-out and setting: the same measure for `O=c1[nH]sc(Nc2ccccc2C(F)(F)F)c1-c1ccccc1` [Example 168]: more than 5 µM; for `Cc1c(Nc2ccccc2C(F)(F)F)s[nH]c1=O` [Example 169]: more than 5 µM.
Still for that read-out and setting: the same measure for `N#Cc1c(NC2CCCCC2)s[nH]c1=O` [Example 170]: more than 5 µM; for `CN(C(=O)c1c(Nc2ccccc2C(F)(F)F)s[nH]c1=O)c1ccccc1` [Example 172]: 1 to 5 µM.
Same read-out and setting: the same measure for `N#Cc1c(Nc2ccc3nc(C(F)(F)F)[nH]c(=O)c3c2)s[nH]c1=O` [Example 173]: more than 5 µM.
In the case of `O=C(c1c(Nc2ccccc2C(F)(F)F)s[nH]c1=O)N1CC2CCC1CC2` [Example 174], the IC50 is more than 5 µM.
The same measure, in the same setting: the value for `N#Cc1c(Nc2ccccc2C(F)(F)F)sn(CCCCCNC(=O)CCCC[C@@H]2SC[C@@H]3NC(=O)N[C@@H]32)c1=O` [Example 175] was less than 1 µM; that for `Cc1cc(C)n2c1CC1C=CC(CCC(=O)NCCCCCn3sc(Nc4ccccc4C(F)(F)F)c(C#N)c3=O)=[N+]1[B-]2(F)F` (stereo not drawn) [Example 176] was 1 to 5 µM.
Same read-out and setting: the same measure for `Cc1cc(C)n2c1C=C1C=CC(CCC(=O)NCCOCCOCCn3sc(Nc4ccccc4C(F)(F)F)c(C#N)c3=O)=[N+]1[B-]2(F)F` [Example 177]: less than 1 µM; for `N#Cc1c(Nc2ccccc2C(F)(F)F)sn(CCOCCOCCNC(=O)CCCC[C@@H]2SC[C@@H]3NC(=O)N[C@@H]32)c1=O` [Example 178]: less than 1 µM.
On the same count and under the same terms, the same measure for `C#CCOCCOCCn1sc(Nc2ccccc2C(F)(F)F)c(C#N)c1=O` [Example 179]: less than 1 µM; for `C#CCOCCOCCOCCn1sc(Nc2ccccc2C(F)(F)F)c(C#N)c1=O` [Example 180]: less than 1 µM.
